Where “and” joins values, the source holds several entries; their conditions need not be identical. Identical values can stand only once.
Assays:
SERT WT [1] = target: T1, SERT WT (Homo sapiens, UniProt P31645); experiment: [3H]IMI dissociation rate assay (allosteric potency), COS-7 membranes;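 on all read-outs here: radioligand pre-bound 30 min at room temperature to equilibrium, then dissociation followed over 5–70 min, ended by filtration through GF/B filters, at least three independent experiments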; type: binding; design: expressed in transfected cells; host or cells: COS-7; settings: for VLZ Allosteric Potency SERT WT, [3H]IMI dissociation (Fig. 2C): ctrl = 1, replicates
T1 sequence (P31645 whole entry): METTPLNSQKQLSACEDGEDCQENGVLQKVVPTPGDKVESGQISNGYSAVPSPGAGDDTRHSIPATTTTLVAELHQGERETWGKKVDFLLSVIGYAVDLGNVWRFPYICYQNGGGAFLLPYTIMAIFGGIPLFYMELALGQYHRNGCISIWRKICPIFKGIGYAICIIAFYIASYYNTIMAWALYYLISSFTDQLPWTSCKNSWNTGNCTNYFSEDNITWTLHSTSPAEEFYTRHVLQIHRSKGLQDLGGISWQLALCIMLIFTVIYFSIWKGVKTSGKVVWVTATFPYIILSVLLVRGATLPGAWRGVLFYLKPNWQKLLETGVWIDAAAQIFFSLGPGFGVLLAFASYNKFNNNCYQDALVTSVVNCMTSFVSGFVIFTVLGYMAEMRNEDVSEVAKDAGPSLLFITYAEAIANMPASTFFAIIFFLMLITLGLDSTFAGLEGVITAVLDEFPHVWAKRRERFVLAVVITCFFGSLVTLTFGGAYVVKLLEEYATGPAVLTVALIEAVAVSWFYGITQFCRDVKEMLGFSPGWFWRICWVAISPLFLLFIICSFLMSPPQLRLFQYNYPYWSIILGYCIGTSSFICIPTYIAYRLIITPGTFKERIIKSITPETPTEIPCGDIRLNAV

SERT WT [2] = target: T1, SERT WT; experiment: [3H]5-HT saturation uptake with increasing VLZ concentrations, COS-7 cells;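 on all read-outs here: transfected cells assayed 2 days post-transfection, 3 min uptake period, accumulated radioactivity counted in cell lysates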; type: cell-based; design: expressed in transfected cells; host or cells: COS-7; [3H]5-HT uptake (Fig. 2A [3H]5-HT Vmax):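 percent of the 5-HT Vmax measured without VLZ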; settings: for [3H]5-HT uptake (Fig. 2A [3H]5-HT Vmax): replicates

[3H]IMI dissociation (Fig. 2B) (SERT WT [1]; 1.6 nM, time 30 min): 88.3693
[3H]IMI dissociation (Fig. 2B) (SERT WT [1]; 1.6 nM, time 50 min): 82.8483
[3H]IMI dissociation (Fig. 2B) (SERT WT [1]; 1.6 nM, time 70 min): 74.8875
[3H]IMI dissociation (Fig. 2B) (SERT WT [1]; 5.0 nM, time 5 min): 97.5709
[3H]IMI dissociation (Fig. 2B) (SERT WT [1]; 5.0 nM, time 10 min): 97.4425
[3H]IMI dissociation (Fig. 2B) (SERT WT [1]; 5.0 nM, time 20 min): 93.3593
[3H]IMI dissociation (Fig. 2B) (SERT WT [1]; 5.0 nM, time 30 min): 90.4506
[3H]IMI dissociation (Fig. 2B) (SERT WT [1]; 5.0 nM, time 50 min): 84.3631
[3H]IMI dissociation (Fig. 2B) (SERT WT [1]; 5.0 nM, time 70 min): 76.3943
[3H]IMI dissociation (Fig. 2B) (SERT WT [1]; 14 nM, time 5 min): 98.3663
[3H]IMI dissociation (Fig. 2B) (SERT WT [1]; 14 nM, time 10 min): 97.4617
[3H]IMI dissociation (Fig. 2B) (SERT WT [1]; 14 nM, time 15 min): 95.8874
[3H]IMI dissociation (Fig. 2B) (SERT WT [1]; 14 nM, time 20 min): 96.0081
[3H]IMI dissociation (Fig. 2B) (SERT WT [1]; 14 nM, time 30 min): 92.2894
[3H]IMI dissociation (Fig. 2B) (SERT WT [1]; 14 nM, time 50 min): 89.4282
[3H]IMI dissociation (Fig. 2B) (SERT WT [1]; 14 nM, time 70 min): 81.9514
[3H]IMI dissociation (Fig. 2B) (SERT WT [1]; 41 nM, time 5 min): 97.9849
[3H]IMI dissociation (Fig. 2B) (SERT WT [1]; 41 nM, time 10 min): 98.4954
[3H]IMI dissociation (Fig. 2B) (SERT WT [1]; 41 nM, time 15 min): 97.2116
[3H]IMI dissociation (Fig. 2B) (SERT WT [1]; 41 nM, time 20 min): 97.5521
[3H]IMI dissociation (Fig. 2B) (SERT WT [1]; 41 nM, time 30 min): 96.6684
[3H]IMI dissociation (Fig. 2B) (SERT WT [1]; 41 nM, time 50 min): 94.4925
[3H]IMI dissociation (Fig. 2B) (SERT WT [1]; 41 nM, time 70 min): 87.7012
VLZ Allosteric Potency SERT WT, [3H]IMI dissociation (Fig. 2C) (SERT WT [1]; Log[VLZ] (M) -4): 0
[3H]5-HT uptake (Fig. 2A [3H]5-HT Vmax) (SERT WT [2]; 1.0 nM VLZ, 5-HT 1000 nM): 49.0825 and 65.883 and 64.0163
[3H]5-HT uptake (Fig. 2A [3H]5-HT Vmax) (SERT WT [2]; 1.0 nM VLZ, 5-HT 2000 nM): 61.0408 and 86.9627 and 62.7549
[3H]5-HT uptake (Fig. 2A [3H]5-HT Vmax) (SERT WT [2]; 1.0 nM VLZ, 5-HT 3000 nM): 66.441 and 97.8152 and 78.0502
[3H]5-HT uptake (Fig. 2A [3H]5-HT Vmax) (SERT WT [2]; 6.0 nM VLZ, 5-HT 1000 nM): 12.5099 and 7.037 and 21.7589
[3H]5-HT uptake (Fig. 2A [3H]5-HT Vmax) (SERT WT [2]; 6.0 nM VLZ, 5-HT 2000 nM): 13.9352 and 18.4437
[3H]5-HT uptake (Fig. 2A [3H]5-HT Vmax) (SERT WT [2]; 6.0 nM VLZ, 5-HT 3000 nM): 16.6938 and 13.3777
[3H]5-HT uptake (Fig. 2A [3H]5-HT Vmax) (SERT WT [2]; 7.5 nM VLZ, 5-HT 2000 nM): 20.8007 and 29.8638 and 2.631 and 9.704
[3H]5-HT uptake (Fig. 2A [3H]5-HT Vmax) (SERT WT [2]; 7.5 nM VLZ, 5-HT 3000 nM): 31.591 and 10.2272 and 13.2803
[3H]5-HT uptake (Fig. 2A [3H]5-HT Vmax) (SERT WT [2]; 10 nM VLZ, 5-HT 1000 nM): 11.1656 and 2.348 and 1.555 and 4.995
[3H]5-HT uptake (Fig. 2A [3H]5-HT Vmax) (SERT WT [2]; 10 nM VLZ, 5-HT 3000 nM): 19.1566 and 3.978 and 3.024
Mode of inhibition of [3H]5-HT transport (SERT WT [2]; VLZ 0–15 nM): non-competitive
5-HT VMAX (in % of no VLZ) (SERT WT [2]; VLZ 1 nM): 93 ± 13%
5-HT VMAX (in % of no VLZ) (SERT WT [2]; VLZ 3.0 nM): 66 ± 10%
5-HT VMAX (in % of no VLZ) (SERT WT [2]; VLZ 3.8 nM): 72 ± 17%
5-HT VMAX (in % of no VLZ) (SERT WT [2]; VLZ 6.0 nM): 21 ± 6%
5-HT VMAX (in % of no VLZ) (SERT WT [2]; VLZ 7.5 nM): 18 ± 8%
5-HT VMAX (in % of no VLZ) (SERT WT [2]; VLZ 10 nM): 11 ± 5%
5-HT VMAX (in % of no VLZ) (SERT WT [2]; VLZ 15 nM): 3.4 ± 1.2%
5-HT VMAX (in % of no VLZ) (SERT WT [2]; VLZ […]): 98 ± 10%
SMILES: N#Cc1ccc2[nH]cc(CCCCN3CCN(c4ccc5oc(C(N)=O)cc5c4)CC3)c2c1 [VLZ, Vilazodone]
VLZ Allosteric Potency SERT WT, [3H]IMI dissociation (Fig. 2C) (SERT WT [1]; Log[VLZ] (M) -5.9101): 0.1027 and 0.08972 and 0.1662 and 0.1172 and 0.01147
VLZ Allosteric Potency SERT WT, [3H]IMI dissociation (Fig. 2C) (SERT WT [1]; Log[VLZ] (M) -6.38561): 0.0801 and 0.09017 and 0.06116 and 0.2108 and 0.1226 and 0.07783 and 0.1748 and 0.1023
VLZ Allosteric Potency SERT WT, [3H]IMI dissociation (Fig. 2C) (SERT WT [1]; Log[VLZ] (M) -6.86273): 0.1665 and 0.2014 and 0.09755 and 0.4073 and 0.1925 and 0.0796 and 0.2088 and 0.1328
VLZ Allosteric Potency SERT WT, [3H]IMI dissociation (Fig. 2C) (SERT WT [1]; Log[VLZ] (M) -7.33985): 0.3329 and 0.2727 and 0.2322 and 0.5054 and 0.3314 and 0.3281 and 0.2598 and 0.3035 and 0.2526
VLZ Allosteric Potency SERT WT, [3H]IMI dissociation (Fig. 2C) (SERT WT [1]; Log[VLZ] (M) -7.81697): 0.6247 and 0.4843 and 0.4623 and 0.5542 and 0.4673 and 0.4013 and 0.468 and 0.4244
VLZ Allosteric Potency SERT WT, [3H]IMI dissociation (Fig. 2C) (SERT WT [1]; Log[VLZ] (M) -8.29409): 0.894 and 0.6671 and 0.6226 and 0.8075 and 0.7294 and 0.5156 and 0.7279 and 0.5418
VLZ Allosteric Potency SERT WT, [3H]IMI dissociation (Fig. 2C) (SERT WT [1]; Log[VLZ] (M) -8.77121): 0.9289 and 0.7744 and 0.7519 and 0.85 and 0.8487 and 0.773 and 0.7182 and 0.7591
[3H]5-HT uptake (Fig. 2A [3H]5-HT Vmax) (SERT WT [2]; 3.0 nM VLZ, 5-HT 1000 nM): 33.7847 and 41.1475 and 28.2118 and 48.6535
[3H]5-HT uptake (Fig. 2A [3H]5-HT Vmax) (SERT WT [2]; 3.0 nM VLZ, 5-HT 2000 nM): 43.7743 and 51.4964 and 36.278 and 58.2653
[3H]5-HT uptake (Fig. 2A [3H]5-HT Vmax) (SERT WT [2]; 3.0 nM VLZ, 5-HT 3000 nM): 47.6029 and 61.8621 and 42.6502 and 66.7813
[3H]5-HT uptake (Fig. 2A [3H]5-HT Vmax) (SERT WT [2]; 3.8 nM VLZ, 5-HT 1000 nM): 22.8758 and 41.0675 and 31.8704 and 40.9164 and 22.5758 and 39.1234
[3H]5-HT uptake (Fig. 2A [3H]5-HT Vmax) (SERT WT [2]; 3.8 nM VLZ, 5-HT 2000 nM): 38.6315 and 55.6912 and 34.4535 and 55.6242 and 30.4203 and 47.6358
[3H]5-HT uptake (Fig. 2A [3H]5-HT Vmax) (SERT WT [2]; 3.8 nM VLZ, 5-HT 3000 nM): 63.6765 and 45.9269 and 61.6646 and 33.1434 and 58.1985
[3H]5-HT uptake (Fig. 2A [3H]5-HT Vmax) (SERT WT [2]; 7.5 nM VLZ, 5-HT 1000 nM): 14.9918 and 20.7791 and 1.755 and 5.881 and 9.304
[3H]5-HT uptake (Fig. 2A [3H]5-HT Vmax) (SERT WT [2]; 10 nM VLZ, 5-HT 2000 nM): 17.8898 and 3.041 and 8.84 and 7.029 and 9.965
[3H]5-HT uptake (Fig. 2A [3H]5-HT Vmax) (SERT WT [2]; 15 nM VLZ, 5-HT 1000 nM): 1.871 and 1.697 and 1.083 and 0.6379 and 0.8401 and 1.916
[3H]5-HT uptake (Fig. 2A [3H]5-HT Vmax) (SERT WT [2]; 15 nM VLZ, 5-HT 2000 nM): 3.689 and 3.04 and 2.083 and 1.212 and 1.597 and 2.763

Source: article PMC8379219 (Nature Communications, 2021)
